EC50 and melting point data for 17 molecules are collected here from patent US20140349994A1, “Novel 2-Amino-4,5,6,8-Tetrahydropyrazolo[3,4-b]Thiazolo [4,5-d]Azepine Derivatives and Their Use as Allosteric Modulators of Metabotropic Glutamate Receptors” (Addex Pharma S.A., priority 2012, published 2014).

The target of data set [1] is T1, recombinant human mGluR4a receptors (Homo sapiens, UniProt Q14833).
T1 construct: expressed in transfected cells
In words: mGluR4 assay on HEK-expressing human mGluR4: fluorescent cell based Ca2+ mobilization assay (FLIPR). Particulars: HEK-293 cells expressing hmGluR4; enhancement of EC25 glutamate response; mean of at least three independent experiments in duplicate; read-out: Ca^2+ Flux (mean EC50). The text has this:
mGluR4 Assay on HEK-Expressing Human mGluR4
The compounds of the present invention are positive allosteric modulators of mGluR4 receptor. Their activity was examined on recombinant human mGluR4a receptors by detecting changes in intracellular Ca^2+ concentration, using the fluorescent Ca^2+-sensitive dye Fluo4-(AM) and a Fluorometric Imaging Plate Reader (FLIPR, Molecular Devices, Sunnyvale, Calif.).
The cDNA encoding the human metabotropic glutamate receptor (hmGluR4), (accession number NM 000841.1, NCBI Nucleotide database browser), was subcloned into an expression vector containing also the hygromycin resistance gene. In parallel, the cDNA encoding a G protein allowing redirection of the activation signal to intracellular calcium flux was subcloned into a different expression vector containing also the puromycin resistance gene. Transfection of both these vectors into HEK293 cells with PolyFect reagent (Qiagen) according to supplier's protocol, and hygromycin and puromycin treatment allowed selection of antibiotic resistant cells which had integrated stably one or more copies of the plasmids. Positive cellular clones expressing hmGluR4 were identified in a functional assay measuring changes in calcium fluxes in response to glutamate or selective known mGluR4 orthosteric agonists and antagonists.
HEK-293 cells expressing hmGluR4 were maintained in media containing DMEM, dialyzed Fetal Calf Serum (10%), Glutamax™ (2 mM), Penicillin (100 units/mL), Streptomycin (100 μg/mL), Geneticin (100 μg/mL) and Hygromycin-B (40 μg/mL) and puromycin (1 μg/mL) at 37° C.5% CO2.
Human mGluR4 HEK-293 cells were plated out 24 hours prior to FLIPR^384 assay in black-walled, clear-bottomed, poly-L-ornithine-coated 384-well plates at a density of 25,000 cells/well in a glutamine/glutamate free DMEM medium containing foetal bovine serum (10%), penicillin (100 units/mL) and streptomycin (100 μg/mL) at 37° C.5% CO2.
On the day of the assay, the medium was aspirated and the cells were loaded with a 3 μM solution of Fluo4-AM (LuBioScience, Lucerne, Switzerland) in 0.03% pluronic acid. After 1 hour at 37° C. 5% CO2, the non incorporated dye was removed by washing cell plate with the assay buffer and the cells were left in the dark at room temperature for six hours before testing. All assays were performed in a pH 7.4 buffered-solution containing 20 mM HEPES, 143 mM NaCl, 6 mM KCl, 1 mM MgSO4, 1 mM CaCl2, 0.125 mM sulfapyrazone and 0.1% glucose.
After 10 s of basal fluorescence recording, various concentrations of the compounds of the invention were added to the cells. Changes in fluorescence levels were first monitored for 180 s in order to detect any agonist activity of the compounds. Then the cells were stimulated by an EC25 glutamate concentration for an additional 110 s in order to measure enhancing activities of the compounds of the invention. EC25 glutamate concentration is the concentration giving 25% of the maximal glutamate response.
The concentration-response curves of representative compounds of the present invention were generated using the Prism GraphPad software (Graph Pad Inc, San Diego, USA). The curves were fitted to a four-parameter logistic equation:
(Y=Bottom+(Top-Bottom)(1+10̂((Log EC50−X)*Hill Slope)
allowing the determination of EC50 values.
The Table 3 below represents the mean EC50 obtained from at least three independent experiments of selected molecules performed in duplicate.

A value given as a limit tells only on which side of the number the result lay.

By EC50 is commonly meant the midpoint of the concentration-response curve. The term melting point denotes the temperature, or range, at which the solid turns liquid.

T1 sequence (Q14833 33-912): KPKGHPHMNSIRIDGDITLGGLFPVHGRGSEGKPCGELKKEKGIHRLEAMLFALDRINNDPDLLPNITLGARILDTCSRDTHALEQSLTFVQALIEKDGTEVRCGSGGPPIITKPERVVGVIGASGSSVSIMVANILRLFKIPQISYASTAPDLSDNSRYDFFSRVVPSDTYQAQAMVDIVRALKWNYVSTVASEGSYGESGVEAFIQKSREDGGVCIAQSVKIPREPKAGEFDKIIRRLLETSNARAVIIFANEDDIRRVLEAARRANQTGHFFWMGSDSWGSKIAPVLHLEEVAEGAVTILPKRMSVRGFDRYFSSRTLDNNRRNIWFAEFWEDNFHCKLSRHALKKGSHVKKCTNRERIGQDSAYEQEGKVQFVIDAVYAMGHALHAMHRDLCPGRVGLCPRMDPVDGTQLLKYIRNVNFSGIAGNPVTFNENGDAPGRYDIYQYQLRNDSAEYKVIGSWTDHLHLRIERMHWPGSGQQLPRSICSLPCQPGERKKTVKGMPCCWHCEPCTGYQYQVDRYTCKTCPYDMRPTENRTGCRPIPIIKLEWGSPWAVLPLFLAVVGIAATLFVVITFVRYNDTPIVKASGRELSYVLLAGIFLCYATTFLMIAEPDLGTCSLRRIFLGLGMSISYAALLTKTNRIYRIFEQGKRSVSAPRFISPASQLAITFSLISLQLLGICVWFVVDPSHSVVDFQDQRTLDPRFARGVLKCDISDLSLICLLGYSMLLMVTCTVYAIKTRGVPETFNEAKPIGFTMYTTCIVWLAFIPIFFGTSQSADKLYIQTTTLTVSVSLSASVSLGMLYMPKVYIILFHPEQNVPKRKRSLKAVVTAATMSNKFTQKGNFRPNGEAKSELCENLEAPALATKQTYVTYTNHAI

Take `CNCCCN1CCc2sc(Nc3ncc(F)cn3)nc2-c2cn[nH]c21` [Compound 1-130, N-(5-Fluoropyrimidin-2-yl)-6-(3-(methylamino)propyl)-4,5,6,8-tetrahydropyrazolo[3,4-b]thiazolo[4,5-d]azepin-2-amine]: in data set [1], the EC50 was 1000 to 10000 nM. Turning to `CC(C)c1nc(CN2CCc3sc(Nc4ncc(F)cn4)nc3-c3cn[nH]c32)no1` [Compound 1-147], the melting point is greater than 260 °C. In addition, the EC50 in data set [1] was less than 100 nM. With `Cc1ccnc(Nc2nc3c(s2)CCN(Cc2noc(C)n2)c2[nH]ncc2-3)n1` [Compound 1-146], in data set [1], the EC50 was less than 100 nM. Turning to `FCCN1CCc2sc(Nc3ncc(F)cn3)nc2-c2cn[nH]c21` [Compound 1-137], the melting point was 283 to 286 °C. Further, in data set [1], the EC50 was less than 100 nM. `Fc1cnc(Nc2nc3c(s2)CCN(Cc2cc(C4CC4)no2)c2[nH]ncc2-3)nc1` [Compound 1-7]: the melting point fell in the range of 266 to 268 °C. In addition, the EC50 in data set [1] was less than 100 nM. With `FCCCN1CCc2sc(Nc3ncc(F)cn3)nc2-c2cn[nH]c21` [Compound 1-149], the melting point was greater than 290 °C. The EC50 in data set [1] is 1000 to 10000 nM. `N#Cc1cccc(CN2CCc3sc(Nc4ncc(F)cn4)nc3-c3cn[nH]c32)c1` [Compound 1-1, 3-((2-(5-Fluoropyrimidin-2-ylamino)-4,5-dihydropyrazolo[3,4-b]thiazolo[4,5-d]azepin-6(7H)-yl)methyl)benzonitrile] displayed a melting point of 282 to 284 °C. The EC50 in data set [1] lay within 100 to 1000 nM. On to `Fc1cnc(Nc2nc3c(s2)CCN(C[C@@H]2CCCO2)c2[nH]ncc2-3)nc1` [Compound 1-126], for which the EC50 in data set [1] is less than 100 nM. On to `Fc1cnc(Nc2nc3c(s2)CCN(CCCN2CCOCC2)c2n[nH]cc2-3)nc1` [Compound 1-140, N-(5-Fluoropyrimidin-2-yl)-6-(3-morpholinopropyl)-4,5,6,8-tetrahydropyrazolo[3,4-b]thiazolo[4,5-d]azepin-2-amine], for which, in data set [1], the EC50 is less than 100 nM. With `OCCCN1CCc2sc(Nc3ncc(F)cn3)nc2-c2cn[nH]c21` [Compound 1-132, 3-(2-(5-Fluoropyrimidin-2-ylamino)-4,5-dihydropyrazolo[3,4-b]thiazolo[4,5-d]azepin-6(8H)-yl)propan-1-ol], the EC50 in data set [1] fell in the range of 100 to 1000 nM. Same read-out and setting: the same measure for `Cc1ccnc(Nc2nc3c(s2)CCN(Cc2ncccn2)c2[nH]ncc2-3)n1` [Compound 1-152]: 100 to 1000 nM; for `Cc1nc(CN2CCc3sc(Nc4ncc(F)cn4)nc3-c3c[nH]nc32)no1` [Compound 1-138, N-(5-Fluoropyrimidin-2-yl)-6-((5-methyl-1,2,4-oxadiazol-3-yl)methyl)-4,5,6,8-tetrahydropyrazolo[3,4-b]thiazolo[4,5-d]azepin-2-amine]: less than 100 nM. Still for that read-out and setting: the figure for `Fc1cnc(Nc2nc3c(s2)CCN(Cc2cc(C4CC4)on2)c2[nH]ncc2-3)nc1` [Compound 1-4] is less than 100 nM; for `Cc1nc(Nc2nc3c(s2)CCN(CC2CC2)c2[nH]ncc2-3)ns1` [Compound 1-3] it is 1000 to 10000 nM. Regarding `Fc1cnc(Nc2nc3c(s2)CCN(CCN2CCOCC2)c2[nH]ncc2-3)nc1` [Compound 1-136, N-(5-Fluoropyrimidin-2-yl)-6-(2-morpholinoethyl)-4,5,6,8-tetrahydropyrazolo[3,4-b]thiazolo[4,5-d]azepin-2-amine], the EC50 in data set [1] was in the range of 100 to 1000 nM.

Regarding `CC(C)N1CCN(CCN2CCc3sc(Nc4ncc(F)cn4)nc3-c3cn[nH]c32)CC1` [Compound 1-141, N-(5-Fluoropyrimidin-2-yl)-6-(2-(4-isopropylpiperazin-1-yl)ethyl)-4,5,6,8-tetrahydropyrazolo[3,4-b]thiazolo[4,5-d]azepin-2-amine], in data set [1], the EC50 fell in the range of 1000 to 10000 nM.

`Cc1noc(CN2CCc3sc(Nc4ncc(F)cn4)nc3-c3cn[nH]c32)n1` [Compound 1-150, N-(5-Fluoropyrimidin-2-yl)-6-((3-methyl-1,2,4-oxadiazol-5-yl)methyl)-4,5,6,8-tetrahydropyrazolo[3,4-b]thiazolo[4,5-d]azepin-2-amine]: the EC50 in data set [1] is less than 100 nM.
